Common to all, as to type: biochemical
One data set deals with T1, CYP2C8 (Homo sapiens, UniProt P10632).
T1 construct: Mixtures of pooled HLM, P450 substrates, and obtusifolin; tissue XenoTech XTreme 200; host or cells: pooled human liver microsomes
T1 sequence (P10632 1-490): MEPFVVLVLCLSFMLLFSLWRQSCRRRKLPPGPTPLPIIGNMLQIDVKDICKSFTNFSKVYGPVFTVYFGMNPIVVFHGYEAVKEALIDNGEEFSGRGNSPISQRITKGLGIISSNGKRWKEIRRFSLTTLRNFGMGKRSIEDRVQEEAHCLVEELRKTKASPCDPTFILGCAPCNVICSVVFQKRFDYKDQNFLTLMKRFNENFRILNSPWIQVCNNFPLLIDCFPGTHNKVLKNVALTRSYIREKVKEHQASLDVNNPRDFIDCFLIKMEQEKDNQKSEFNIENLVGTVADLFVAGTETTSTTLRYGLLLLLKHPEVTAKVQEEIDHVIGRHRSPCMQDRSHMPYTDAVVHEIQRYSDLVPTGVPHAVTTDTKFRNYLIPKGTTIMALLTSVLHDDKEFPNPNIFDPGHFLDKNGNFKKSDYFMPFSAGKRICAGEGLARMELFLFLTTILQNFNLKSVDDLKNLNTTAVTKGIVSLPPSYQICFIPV
As to the kind of experiment: Amodiaquine N-deethylation in human liver microsomes. The settings on record: HLMs. For orientation: Liver microsomes are a subcellular fraction often used to study metabolism.

The target in a further data set is T2, CYP2C19 (Homo sapiens, UniProt P33261).
T2 construct: Mixtures of pooled HLM, P450 substrates, and obtusifolin; tissue XenoTech XTreme 200; host or cells: pooled human liver microsomes
Description: Omeprazole 4-hydroxylation in human liver microsomes. The settings on record: HLMs.

The target of another data set is T3, CYP2E1 (Homo sapiens, UniProt P05181).
T3 construct: Mixtures of pooled HLM, P450 substrates, and obtusifolin; tissue XenoTech XTreme 200; host or cells: pooled human liver microsomes
As to the kind of experiment: biochemical.

A further data set deals with T4, rCYP1A1 (Homo sapiens, UniProt P04798).
T4 construct: purchased SPMED (Busan, Republic of Korea)
T4 sequence (P04798 1-512): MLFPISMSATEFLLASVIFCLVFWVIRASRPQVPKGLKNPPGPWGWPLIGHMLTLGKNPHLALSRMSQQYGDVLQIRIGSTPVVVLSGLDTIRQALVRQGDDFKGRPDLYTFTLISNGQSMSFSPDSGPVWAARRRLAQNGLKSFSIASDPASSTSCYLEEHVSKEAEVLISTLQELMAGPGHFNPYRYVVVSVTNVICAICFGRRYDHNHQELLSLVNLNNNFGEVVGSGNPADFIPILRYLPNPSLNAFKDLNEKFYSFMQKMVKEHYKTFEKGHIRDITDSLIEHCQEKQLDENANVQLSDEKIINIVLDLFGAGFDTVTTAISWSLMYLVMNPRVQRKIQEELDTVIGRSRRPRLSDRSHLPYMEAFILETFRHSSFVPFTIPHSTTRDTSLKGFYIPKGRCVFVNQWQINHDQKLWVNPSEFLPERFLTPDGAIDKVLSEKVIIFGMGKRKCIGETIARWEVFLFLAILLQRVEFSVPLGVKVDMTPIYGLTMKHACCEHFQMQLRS
Description: Ethoxyresorufin O-deethylation (EROD) in recombinant CYP1A1. Particulars: rCYP1A1 10 pmol/mL, 7-ethoxyresorufin 2 µM, 20 min; read-out: IC50, CYP1A1-mediated EROD. As for the experimental part:
The inhibitory effects of obtusifolin on the CYP1A-mediated ethoxyresorufin O-deethylation (EROD) activity of rCYP1A1 and rCYP1A2 enzymes (10 pmol/mL) were investigated. […] The other conditions, except for the incubation time (20 min), were similar to those used in the P450 inhibition study, as described earlier.

Another data set addresses T5, rCYP1A2 (Homo sapiens, UniProt P05177).
T5 construct: purchased SPMED (Busan, Republic of Korea)
T5 sequence (P05177 1-516): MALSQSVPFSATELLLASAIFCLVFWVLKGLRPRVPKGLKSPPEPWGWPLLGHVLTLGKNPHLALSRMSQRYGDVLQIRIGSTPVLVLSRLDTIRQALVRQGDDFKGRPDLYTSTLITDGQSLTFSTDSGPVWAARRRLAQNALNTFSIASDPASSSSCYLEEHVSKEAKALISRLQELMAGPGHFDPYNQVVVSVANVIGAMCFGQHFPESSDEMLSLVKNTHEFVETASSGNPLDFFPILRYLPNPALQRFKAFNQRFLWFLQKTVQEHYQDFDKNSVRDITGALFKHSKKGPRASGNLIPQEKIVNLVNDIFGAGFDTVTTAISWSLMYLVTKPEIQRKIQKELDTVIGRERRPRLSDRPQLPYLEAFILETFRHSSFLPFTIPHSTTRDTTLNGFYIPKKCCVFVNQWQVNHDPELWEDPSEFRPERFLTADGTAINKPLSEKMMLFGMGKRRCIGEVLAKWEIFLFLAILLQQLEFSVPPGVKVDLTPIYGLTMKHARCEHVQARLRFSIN
Description: Recombinant CYP1A2 inhibition with 9-cis-retinal as substrate. Particulars: substrate 9-cis-retinal. The text has this: Table 5 Inhibitory effects (IC50) of obtusifolin against recombinant CYP1A1 and CYP1A2. | column: IC50 (μM)

The structures appear in SMILES notation.

T3 sequence (P05181 whole entry): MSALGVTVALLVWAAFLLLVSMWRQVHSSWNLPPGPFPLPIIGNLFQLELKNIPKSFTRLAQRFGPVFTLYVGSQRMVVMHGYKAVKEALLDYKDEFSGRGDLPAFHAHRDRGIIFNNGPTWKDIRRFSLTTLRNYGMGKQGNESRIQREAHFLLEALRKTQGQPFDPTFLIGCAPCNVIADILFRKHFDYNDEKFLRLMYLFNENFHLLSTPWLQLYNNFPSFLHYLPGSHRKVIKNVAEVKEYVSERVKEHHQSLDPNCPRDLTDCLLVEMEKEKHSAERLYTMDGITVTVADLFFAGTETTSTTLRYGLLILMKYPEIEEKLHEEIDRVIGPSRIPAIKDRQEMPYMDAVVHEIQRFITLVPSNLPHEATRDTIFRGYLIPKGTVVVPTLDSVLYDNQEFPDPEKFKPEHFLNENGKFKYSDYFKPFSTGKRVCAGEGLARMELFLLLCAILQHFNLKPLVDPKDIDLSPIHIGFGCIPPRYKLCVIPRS
T2 sequence (P33261 whole entry): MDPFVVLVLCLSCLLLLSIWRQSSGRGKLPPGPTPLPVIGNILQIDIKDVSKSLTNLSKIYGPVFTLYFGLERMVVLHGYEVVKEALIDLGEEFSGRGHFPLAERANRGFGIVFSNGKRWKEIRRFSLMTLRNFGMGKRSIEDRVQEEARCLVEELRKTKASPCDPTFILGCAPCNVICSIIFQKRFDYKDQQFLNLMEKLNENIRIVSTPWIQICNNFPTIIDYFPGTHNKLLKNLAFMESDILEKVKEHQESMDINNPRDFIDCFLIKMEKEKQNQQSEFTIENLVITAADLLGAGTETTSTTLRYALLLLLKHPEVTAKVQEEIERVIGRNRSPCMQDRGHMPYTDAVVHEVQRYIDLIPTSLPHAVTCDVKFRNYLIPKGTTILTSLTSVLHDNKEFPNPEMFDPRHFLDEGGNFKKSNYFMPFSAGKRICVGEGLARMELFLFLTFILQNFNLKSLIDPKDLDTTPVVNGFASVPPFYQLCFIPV
Description for CYP2C19: (§1) The following P450 isoform-specific substrates were used: coumarin (CYP2A6); bupropion (CYP2B6); amodiaquine (CYP2C8); tolbutamide (CYP2C9); omeprazole (CYP2C19); dextromethorphan (CYP2D6); chlorzoxazone (CYP2E1); and midazolam (CYP3A). […] NGS was introduced to start the reaction, which was followed by an additional incubation (15 min). Following reaction termination, aliquots of the supernatants were analyzed with LC-MS/MS.
(§2) Reverse phase column (Kinetex XB-C18, 100 × 2.10 mm; Phenomenex, Torrance, CA, USA) and triple-quadrupole mass spectrometer (LCMS 8060, Shimadzu, Kyoto, Japan) with an ultra high-performance LC system (Nexera X2, Shimadzu) analyze all the metabolites. […] For each metabolite, quantitation was carried out in selected reaction monitoring (SRM) mode using the following precursor-to-product ion transition: m/z 152 > 110 for acetaminophen (CYP1A2), m/z 214 > 186 for resorufin (CYP1A1 and CYP1A2), m/z 163 > 107 for 7-hydroxycoumarin (CYP2A6), m/z 256 > 238 for 6-hydroxybupropion (CYP2B6), m/z 328 > 283 for N-desethylamodiaquine (CYP2C8), m/z 287 > 89 for 5-hydroxytolbutamide (CYP2C9), m/z 362 > 214 for 4-hydroxyomeprazole (CYP2C9), m/z 258 > 157 for dextrorphan (CYP2D6), m/z 184 > 120 for 6-hydroxychlorzoxazone (CYP2E1), m/z 342 > 203 for 1′-hydroxymidazolam (CYP3A), and m/z 295 > 100 for trimipramine (IS) [23, 24].
Description for CYP2C8: as §1, §2
Description for CYP2E1: as §1, §2

In general, IC50 refers to the concentration needed to halve the response being measured. As usually defined, the inhibition is the share of the control response that was lost under treatment. Low readings indicate a response near the control, high ones a response far below the control. As to `COc1c(O)c(C)cc2c1C(=O)c1c(O)cccc1C2=O` [Obtusifolin, obtusifolin], the half-maximal inhibitory concentration (IC50) against CYP2C8 was 31.4 µM; on CYP2C19 it was greater than 50 µM; against CYP2E1 it was greater than 50 µM; on rCYP1A1, 0.39 ± 0.06 µM; on rCYP1A2, 0.15 ± 0.03 µM. Also, the inhibition at 15 min, 0.5 µM against CYP2E1 (human, microsomes) was 30.7%.
